The results in this text go back to patent US10143696B2, “Methods and compositions for decreasing gastric emptying” (priority 2015, dated 2018).

Each structure is given as a SMILES string.

In assay [1] the test system is Sprague-Dawley rats. Put plainly: Gastrointestinal transit, charcoal meal assay. The class given is in vivo, rat. Here is the method:
Small intestinal transit was measured based on a known method which involved the oral administration of a charcoal meal (Gmerek et al. (1986). “Independent central and peripheral mediation of morphine-induced inhibition of gastrointestinal transit in rats.” J Pharmacol Exp Ther 236(1): 8-13). Rats were fasted with free access to water for 18 hours. Test compound or vehicle was dosed prior to oral administration of a charcoal slurry containing activated charcoal, flour and water in a ratio of 1:2:7.5 (10 ml/kg orally). One hour after receiving the charcoal slurry, rats were euthanized by CO2 asphyxiation. The stomach and GI tract was excised from each animal. Whole stomach weight was recorded and the length of the small intestine (cm) (stomach to cecum) and the distance (cm) to the leading edge of charcoal was measured. Small intestinal transit data are expressed as a percentage of the distance traveled (i.e. % small intestinal transit=(distance charcoal traveled)/(total length of small intestine (stomach to cecum)×100). Pretreatment times were determined on the basis of pharmacokinetic data (not shown) and were as follows: Compound A, 60 minutes, Compound C, 60 minutes; carbamazepine, 60 minutes. Morphine was administered with a pretreatment time of 30 mins based on previous experience.

For assay [2], the system named is Sprague-Dawley rats. Put plainly: Gastric secretion volume and pH in fasted rats. It is filed as in vivo, rat. As for the experimental part: Gastric section and acidity was assessed by direct measurement in fasted animals (Melo et al. (2006). “Effect of acid secretion blockade on acute gastric mucosal lesions induced by Tityus serrulatus scorpion toxin in anaesthetized rats.” Toxicon 48(5): 543-549). Rats were fasted with free access to water for 24 hours on wire inserts without bedding. The next day, all rats were dosed orally with 0.5% MC (5 ml/kg) to remove any residual stomach contents and test compound or vehicle was administered. The animals were water deprived for 3 hours, anesthetized with isoflurane (5% in O2), and a laparotomy was conducted followed by tight ligation of the pylorus and cardia. After ligation, the stomach was removed and the rat was immediately euthanized by decapitation. The stomach was opened along the greater curvature and gastric fluid collected into Eppendorf tubes and centrifuged (5 min at 10×1000 g). pH was determined by pipetting gastric fluid directly onto an indicator stick (Whatman, Panpeha Plus, pH0-14). Data are represented as the mean volume and mean pH.
Male, Sprague-Dawley rats (weighing between 254-270 g each and 6 rats per test group) were fasted overnight (24 hours) on wire inserts without bedding. The rats were first orally dosed with 0.5% MC vehicle and then subcutaneously injected with 3 mg/kg or 10 mg/kg of Compound A with a 25% HPBCD vehicle or with a 25% HPBCD vehicle alone. The test animals were water deprived for 3 hours and then anesthetized with isoflurane and the pylorus and cardia were tightly ligated. The stomachs were then removed and the rats were euthanized. The gastric fluid was removed from the stomachs and collected in eppendorf tubes by cutting along the greatest curvature and spun in a centrifuge. Gastric secretion data were analyzed by a one-way ANOVA using a Bonferroni Multiple Comparison test, where *P<0.05 and **P<0.01 as compared to the appropriate vehicle. Data are represented as the means+S.E.M. PH data were analyzed by a one-way ANOVA using Dunnett's Multiple Comparison Test. Data are represented as the means+S.E.M.
This Example measured volume and pH of gastric secretion three hours post subcutaneous administration of 10 mg/kg of Compound A. The animals were water deprived during this time.

Where [3] appears, read: Compound A 10 mg/kg s.c. alone, three hours post administration (Example 17).
Where [4] appears, read: s.c. 3, 10 mg/kg, 25% HPBCD, 3 hours (Example 10).

For `C[C@H](Nc1cc(C(N)=O)nc(-c2ccc(Oc3ccc(OC(F)(F)F)cc3)cc2)n1)C(N)=O` [Compound A], the “dosage level with significant effect on stomach weight” value in the assay on Sprague-Dawley rats [1] (charcoal meal assay) is 100 mg/kg. In addition, the stomach weight entry in the assay on Sprague-Dawley rats [1] (charcoal meal assay, vs vehicle treated animals) is recorded as “statistically significant increase in stomach weight”. Moreover, in the assay with Sprague-Dawley rats [1] (charcoal meal, 60 minutes pretreatment, vs vehicle), the “gastrointestinal transit (% small intestinal transit)” value was “No statistically significant decrease in gastrointestinal transit”. For the same compound, the “pH of gastric secretion” value with Sprague-Dawley rats [2] (setting [3]) was “increase in gastric secretion and pH”; in the assay on Sprague-Dawley rats [2] (setting [4]), “remains unaffected”. Also, the “volume of gastric secretion” value is “increase in gastric secretion and pH” in the assay on Sprague-Dawley rats [2] (setting [3]); “increases with increasing dosages of Compound A” in the assay on Sprague-Dawley rats [2] (setting [4]). Moreover, in the assay on Sprague-Dawley rats [2] (lansoprazole 30 mg/kg p.o. 30 minutes prior to Compound A 10 mg/kg s.c. (Example 17)), the “volume and pH of gastric secretion” value is reported as “not different from that achieved by Compound A alone”.
